Reference: US20170088545A1, “CARBOXAMIDE INHIBITORS” (Norvartis AG, priority 2014, published 2017)

How the values were obtained:
Smurf-1 = Smurf-1 (Homo sapiens, UniProt Q9HCE7); assay: HECT E3 ligase autoubiquitinylation TR-FRET assay, Smurf-1; format: biochemical; settings: 45 min incubation, 8-point dose-response
Description: (§1) To determine the HECT E3 ligase selectivity of the compounds, a panel of biochemical HECT E3 ligase autoubiquitinylation assays was employed (Smurf-1, Smurf-2, WWP1, WWP2, ITCH, Nedd4, Nedd4L and E6AP). The conjugation of ubiquitin to a protein substrate is a multistep process. In an initial ATP-requiring step, a thioester bond is formed between the carboxyl terminus of ubiquitin and an internal cystein residue of the ubiquitin-activating enzyme (E1). Activated ubiquitin is then transferred to a specific cystein residue of an ubiquitin-conjugating enzyme (E2). E2s donate ubiquitin to a HECT E3 ligase (E3) from which it is transferred to the substrate protein. HECT E3 ligases can auto-ubiquitinylate. This event is detected in the TR-FRET (Time-Resolved Fluorescence Resonance Energy Transfer) assay used in this panel. The reaction mix contains E1, E2, tagged-E3, biotin-conjugated ubiquitin, the compound and ATP in a suitable buffer and is incubated for 45 minutes to allow auto-ubiquitinylation of the E3 ligase. To measure the extent of ubiquitinylated E3 ligase by TR-FRET, the donor fluorophore Europium cryptate (Eu3+ cryptate), conjugated to streptavidin which subsequently binds to biotinylated ubiquitin, and the modified allophycocyanin XL665 (HTRF® primary acceptor fluorophore) coupled to a tag-specific antibody (HA, His or GST), which recognizes the respective E3 ligase fusion proteins, are added after the reaction is complete. When these two fluorophores are brought together by a biomolecular interaction (in this case ubiquitinylation of the E3 ligase), a portion of the energy captured by the Cryptate during excitation is released through fluorescence emission at 620 nm, while the remaining energy is transferred to XL665. This energy is then released by XL665 as specific fluorescence at 665 nm. Light at 665 nm is emitted only through FRET with Europium.
(§2) Test and reference compounds are prepared at 180× [final] in 90% DMSO, and diluted 1:3 in 90% DMSO.
(§3) For the biochemical assay panel, 50 nl of the test compounds, reference compounds and buffer/DMSO control are transferred to the respective wells of a 384-well white GREINER “SMALL VOLUME” PS plate. The assay panel is run at room temperature on a Biomek FX liquid handling workstation. To the assay plates containing 50 nl compound or control solutions in 90% DMSO, 4.5 ul of E3 ligase solution were added per well, followed by 4.5 ul of the pre-incubated E1/E2/Ub mix or the pre-diluted ubiquitin (LOW control). Plates are shaken vigorously after each addition. In this assay the compound concentrations range from 3 nM to 10 uM in an 8-point dose-response curve.
(§4) After 45 min of incubation the ubiquitinylation reactions were stopped by adding 4.5 ul 2 mM NEM, immediately followed by 4.5 ul of a detection solution including the XL665-labeled antibody and the streptavidin-coupled europium to give a total volume of 18 ul. After an incubation time of 45 min in the dark, the plates are transferred into the Pherastar fluorescence reader to measure the TR-FRET signal.

Smurf-2 = Smurf-2 (Homo sapiens, UniProt Q9HAU4); assay: HECT E3 ligase autoubiquitinylation TR-FRET assay, Smurf-2; format: biochemical; settings: 45 min incubation, 8-point dose-response
Description: as §1, §2, §3, §4

Smurf-2, sequence (Q9HAU4 whole entry, species assumed): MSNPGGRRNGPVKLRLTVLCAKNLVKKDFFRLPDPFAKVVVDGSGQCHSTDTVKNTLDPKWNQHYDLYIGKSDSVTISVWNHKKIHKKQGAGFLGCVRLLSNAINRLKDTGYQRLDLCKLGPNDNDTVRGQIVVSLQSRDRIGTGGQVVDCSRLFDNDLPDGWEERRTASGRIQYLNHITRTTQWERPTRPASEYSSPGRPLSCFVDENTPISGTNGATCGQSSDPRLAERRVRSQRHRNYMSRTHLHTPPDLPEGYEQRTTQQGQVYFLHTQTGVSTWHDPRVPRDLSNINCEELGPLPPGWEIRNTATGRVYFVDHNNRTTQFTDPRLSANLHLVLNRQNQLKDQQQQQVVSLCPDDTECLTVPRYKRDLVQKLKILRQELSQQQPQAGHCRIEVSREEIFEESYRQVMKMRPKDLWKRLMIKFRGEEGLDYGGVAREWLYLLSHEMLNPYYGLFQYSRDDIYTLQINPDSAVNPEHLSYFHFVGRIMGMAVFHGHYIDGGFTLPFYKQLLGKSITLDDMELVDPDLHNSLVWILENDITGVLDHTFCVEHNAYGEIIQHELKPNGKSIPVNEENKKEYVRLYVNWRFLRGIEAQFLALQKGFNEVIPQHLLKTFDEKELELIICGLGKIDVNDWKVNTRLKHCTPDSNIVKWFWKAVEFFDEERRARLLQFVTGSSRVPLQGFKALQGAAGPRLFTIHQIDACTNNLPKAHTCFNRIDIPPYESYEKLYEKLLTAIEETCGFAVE
Smurf-1, sequence (Q9HCE7 whole entry): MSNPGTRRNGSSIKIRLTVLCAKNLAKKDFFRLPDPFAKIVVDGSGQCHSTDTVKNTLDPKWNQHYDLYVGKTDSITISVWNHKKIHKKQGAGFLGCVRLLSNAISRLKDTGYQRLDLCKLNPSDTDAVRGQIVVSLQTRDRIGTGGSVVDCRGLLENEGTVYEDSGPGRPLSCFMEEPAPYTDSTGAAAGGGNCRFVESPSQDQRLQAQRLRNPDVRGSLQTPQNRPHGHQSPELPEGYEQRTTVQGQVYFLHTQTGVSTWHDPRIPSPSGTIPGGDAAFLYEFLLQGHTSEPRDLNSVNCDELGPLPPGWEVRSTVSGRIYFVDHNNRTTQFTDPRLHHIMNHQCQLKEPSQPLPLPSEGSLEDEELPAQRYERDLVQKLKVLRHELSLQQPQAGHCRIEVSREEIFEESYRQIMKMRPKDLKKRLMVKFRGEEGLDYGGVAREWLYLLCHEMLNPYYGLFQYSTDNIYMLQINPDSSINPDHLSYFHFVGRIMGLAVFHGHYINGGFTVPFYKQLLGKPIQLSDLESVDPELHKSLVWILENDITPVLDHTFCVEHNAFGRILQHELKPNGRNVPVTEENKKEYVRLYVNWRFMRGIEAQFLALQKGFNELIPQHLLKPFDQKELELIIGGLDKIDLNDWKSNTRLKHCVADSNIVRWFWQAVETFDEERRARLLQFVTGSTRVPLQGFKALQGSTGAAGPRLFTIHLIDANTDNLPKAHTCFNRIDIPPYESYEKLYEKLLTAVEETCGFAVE

Cc1c(C(=O)Nc2c(C)n(C)n(-c3ccccc3F)c2=O)noc1-c1ccc(Cl)cc1Cl [Example 001, 5-(2,4-Dichlorophenyl)-N-(2-(2-fluorophenyl)-1,5-dimethyl-3-oxo-2,3-dihydro-1H-pyrazol-4-yl)-4-methylisoxazole-3-carboxamide]
IC50 (Smurf-1): 29.5 nM | IC50 (Smurf-2): > 10000 nM

Cc1c(C(=O)Nc2c(C)n(C)n(-c3ccccc3F)c2=O)noc1-c1ccc(C2CC2)cc1Cl [Example 002, 5-(2-Chloro-4-cyclopropylphenyl)-N-(2-(2-fluorophenyl)-1,5-dimethyl-3-oxo-2,3-dihydro-1H-pyrazol-4-yl)-4-methylisoxazole-3-carboxamide]
IC50 (Smurf-1): 13.4 nM | IC50 (Smurf-2): 3660 nM

Cc1c(NC(=O)c2noc(-c3ccc(OC(F)F)cc3Cl)c2Cl)c(=O)n(-c2ccccc2F)n1C [Example 003, 4-Chloro-5-(2-chloro-4-(difluoromethoxy)phenyl)-N-(2-(2-fluorophenyl)-1,5-dimethyl-3-oxo-2,3-dihydro-1H-pyrazol-4-yl)isoxazole-3-carboxamide]
IC50 (Smurf-1): 54.3 nM | IC50 (Smurf-2): 16800 nM

COc1ccc(-c2onc(C(=O)Nc3c(C)n(C)n(-c4ccccc4F)c3=O)c2C)c(Cl)c1 [Example 006, 5-(2-Chloro-4-methoxyphenyl)-N-(2-(2-fluorophenyl)-1,5-dimethyl-3-oxo-2,3-dihydro-1H-pyrazol-4-yl)-4-methylisoxazole-3-carboxamide]
IC50 (Smurf-1): 23.5 nM | IC50 (Smurf-2): 10800 nM

Cc1c(C(=O)Nc2c(C)n(C)n(-c3ccccc3F)c2=O)noc1-c1ccc(C(F)(F)F)cc1 [Example 008, N-(2-(2-Fluorophenyl)-1,5-dimethyl-3-oxo-2,3-dihydro-1H-pyrazol-4-yl)-4-methyl-5-(4-(trifluoromethyl)phenyl) isoxazole-3-carboxamide]
IC50 (Smurf-1): 883 nM | IC50 (Smurf-2): > 10000 nM

Cc1c(C(=O)Nc2c(C)n(C)n(C3CCCCC3)c2=O)noc1-c1ccc(OC(F)(F)F)cc1Cl [Example 010, 5-(2-Chloro-4-(trifluoromethoxy)phenyl)-N-(2-cyclohexyl-1,5-dimethyl-3-oxo-2,3-dihydro-1H-pyrazol-4-yl)-4-methylisoxazole-3-carboxamide]
IC50 (Smurf-1): 22.7 nM | IC50 (Smurf-2): 2740 nM

CSc1ccc(-c2onc(C(=O)Nc3c(C)n(C)n(-c4ccccc4F)c3=O)c2C)cc1 [Example 011, N-(2-(2-Fluorophenyl)-1,5-dimethyl-3-oxo-2,3-dihydro-1H-pyrazol-4-yl)-4-methyl-5-(4-(methylthio)phenyl) isoxazole-3-carboxamide]
IC50 (Smurf-1): 777 nM | IC50 (Smurf-2): > 10000 nM

Cc1c(C(=O)Nc2c(C)n(C)n(-c3ccccc3F)c2=O)noc1-c1ccc(N(C)C)cc1 [Example 012, 5-(4-(Dimethylamino)phenyl)-N-(2-(2-fluorophenyl)-1,5-dimethyl-3-oxo-2,3-dihydro-1H-pyrazol-4-yl)-4-methylisoxazole-3-carboxamide]
IC50 (Smurf-1): 1050 nM | IC50 (Smurf-2): > 10000 nM

COc1ccc(-c2onc(C(=O)Nc3c(C)n(C)n(-c4ccccc4F)c3=O)c2C)c(C(F)(F)F)c1 [Example 013, N-(2-(2-Fluorophenyl)-1,5-dimethyl-3-oxo-2,3-dihydro-1H-pyrazol-4-yl)-5-(4-methoxy-2-(trifluoromethyl)phenyl)-4-methylisoxazole-3-carboxamide]
IC50 (Smurf-1): 102 nM | IC50 (Smurf-2): > 20000 nM

Cc1c(C(=O)Nc2c(C)n(C)n(C3CCCCC3)c2=O)noc1-c1ccc(C2CC2)cc1Cl [Example 019, 5-(2-Chloro-4-cyclopropylphenyl)-N-(2-cyclohexyl-1,5-dimethyl-3-oxo-2,3-dihydro-1H-pyrazol-4-yl)-4-methylisoxazole-3-carboxamide]
IC50 (Smurf-1): 3.5 nM | IC50 (Smurf-2): 3100 nM

COc1ccc(-c2onc(C(=O)Nc3c(C)n(C)n(-c4ccccc4F)c3=O)c2Cl)c(F)c1Cl [Example 021, 4-Chloro-5-(3-chloro-2-fluoro-4-methoxyphenyl)-N-(2-(2-fluorophenyl)-1,5-dimethyl-3-oxo-2,3-dihydro-1H-pyrazol-4-yl)isoxazole-3-carboxamide]
IC50 (Smurf-1): 810 nM | IC50 (Smurf-2): > 10000 nM

COc1ccc(-c2onc(C(=O)Nc3c(C)n(C)n(-c4ccccc4F)c3=O)c2Cl)c(F)c1 [Example 022, 4-Chloro-5-(2-fluoro-4-methoxyphenyl)-N-(2-(2-fluorophenyl)-1,5-dimethyl-3-oxo-2,3-dihydro-1H-pyrazol-4-yl) isoxazole-3-carboxamide]
IC50 (Smurf-1): 1160 nM | IC50 (Smurf-2): > 10000 nM

Cc1c(NC(=O)c2noc(-c3ccc(Cl)cc3Cl)c2Cl)c(=O)n(C2CCCCC2)n1C [Example 023, 4-Chloro-N-(2-cyclohexyl-1,5-dimethyl-3-oxo-2,3-dihydro-1H-pyrazol-4-yl)-5-(2,4-dichlorophenyl) isoxazole-3-carboxamide]
IC50 (Smurf-1): 2.4 nM | IC50 (Smurf-2): 4250 nM

Cc1c(NC(=O)c2noc(-c3ccc(C4CC4)cc3Cl)c2Cl)c(=O)n(-c2ccccc2F)n1C [Example 030, 4-Chloro-5-(2-chloro-4-cyclopropylphenyl)-N-(2-(2-fluorophenyl)-1,5-dimethyl-3-oxo-2,3-dihydro-1H-pyrazol-4-yl)isoxazole-3-carboxamide]
IC50 (Smurf-1): 13.3 nM | IC50 (Smurf-2): 5400 nM

COc1ccc(-c2onc(C(=O)Nc3c(C)n(C)n(-c4ccccc4F)c3=O)c2F)c(Cl)c1 [Example 033, 5-(2-Chloro-4-methoxyphenyl)-4-fluoro-N-(2-(2-fluorophenyl)-1,5-dimethyl-3-oxo-2,3-dihydro-1H-pyrazol-4-yl)isoxazole-3-carboxamide]
IC50 (Smurf-1): 220 nM | IC50 (Smurf-2): > 20000 nM

COc1ccc(-c2onc(C(=O)Nc3c(C)n(C)n(C4CCCCC4)c3=O)c2Br)c(Cl)c1 [Example 034, 4-Bromo-5-(2-chloro-4-methoxyphenyl)-N-(2-cyclohexyl-1,5-dimethyl-3-oxo-2,3-dihydro-1H-pyrazol-4-yl)isoxazole-3-carboxamide]
IC50 (Smurf-1): 3.7 nM | IC50 (Smurf-2): 5230 nM

Cc1c(NC(=O)c2noc(-c3ccc(Cl)cc3Cl)c2Br)c(=O)n(-c2ccccc2F)n1C [Example 037, 4-Bromo-5-(2,4-dichlorophenyl)-N-(2-(2-fluorophenyl)-1,5-dimethyl-3-oxo-2,3-dihydro-1H-pyrazol-4-yl)isoxazole-3-carboxamide]
IC50 (Smurf-1): 36 nM | IC50 (Smurf-2): 17800 nM

Cc1c(NC(=O)c2noc(-c3ccc(Cl)cc3Cl)c2C2CC2)c(=O)n(C2CCCCC2)n1C [Example 039, N-(2-Cyclohexyl-1,5-dimethyl-3-oxo-2,3-dihydro-1H-pyrazol-4-yl)-4-cyclopropyl-5-(2,4-dichlorophenyl) isoxazole-3-carboxamide]
IC50 (Smurf-1): 8.3 nM | IC50 (Smurf-2): 7500 nM

Cc1c(NC(=O)c2noc(-c3ccc(Cl)cc3Cl)c2C#N)c(=O)n(-c2ccccc2F)n1C [Example 042, 4-Cyano-5-(2,4-dichlorophenyl)-N-(2-(2-fluorophenyl)-1,5-dimethyl-3-oxo-2,3-dihydro-1H-pyrazol-4-yl)isoxazole-3-carboxamide]
IC50 (Smurf-1): 450 nM | IC50 (Smurf-2): 19200 nM

COc1cc(F)c(-c2onc(C(=O)Nc3c(C)n(C)n(-c4ccccc4F)c3=O)c2C)c(F)c1 [Example 046, 5-(2,6-difluoro-4-methoxyphenyl)-N-(2-(2-fluorophenyl)-1,5-dimethyl-3-oxo-2,3-dihydro-1H-pyrazol-4-yl)-4-methylisoxazole-3-carboxamide]
IC50 (Smurf-1): 4150 nM | IC50 (Smurf-2): > 10000 nM

COCc1ccc(-c2onc(C(=O)Nc3c(C)n(C)n(C4CCCCC4)c3=O)c2C)c(Cl)c1 [Example 47, 5-(2-Chloro-4-(methoxymethyl)phenyl)-N-(2-cyclohexyl-1,5-dimethyl-3-oxo-2,3-dihydro-1H-pyrazol-4-yl)-4-methylisoxazole-3-carboxamide]
IC50 (Smurf-1): 41.5 nM | IC50 (Smurf-2): > 20200 nM

COc1ccc(-c2onc(C(=O)Nc3c(C)n(C)n(C4CCCCC4)c3=O)c2C)cc1C [Example 048, N-(2-Cyclohexyl-1,5-dimethyl-3-oxo-2,3-dihydro-1H-pyrazol-4-yl)-5-(4-methoxy-3-methylphenyl)-4-methylisoxazole-3-carboxamide]
IC50 (Smurf-1): 7.7 nM | IC50 (Smurf-2): 2400 nM
